Data: patent US6737383B1, “Herbicidal oxadiazolidines” (priority 1999, dated 2004)

Assays:
[1] = tested on: bedstraw; assay: Test B pre/postemergence bedstraw; assay type: in vivo, Galium aparine
Summary of the method: (§1)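 Response is a visual 0-to-10 score relative to untreated plants, where 0 means no effect and 10 means complete control, taken twelve to sixteen days after application. Treatments went onto soil at planting and onto foliage of 1- to 4-leaf plants, using a surfactant-containing non-phytotoxic solvent.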

[2] = tested on: blackgrass; assay: Test B pre/postemergence blackgrass; assay type: in vivo, Alopecurus myosuroides
Summary of the method: as §1

[3] = tested on: surinam grass; assay: Test B pre/postemergence surinam grass; assay type: in vivo, Brachiaria decumbens
Summary of the method: as §1

[4] = tested on: cocklebur; assay: Test B pre/postemergence cocklebur; assay type: in vivo, Xanthium strumarium
Summary of the method: as §1

[5] = tested on: corn; assay: Test B pre/postemergence corn; assay type: in vivo, Zea mays
Summary of the method: as §1

[6] = tested on: crabgrass; assay: Test B pre/postemergence crabgrass; assay type: in vivo, Digitaria sanguinalis
Summary of the method: as §1

[7] = tested on: giant foxtail; assay: Test B pre/postemergence giant foxtail; assay type: in vivo, Setaria faberii
Summary of the method: as §1

[8] = tested on: morningglory; assay: Test B pre/postemergence morningglory; assay type: in vivo, Ipomoea hederacea
Summary of the method: as §1

[9] = tested on: pigweed; assay: Test B pre/postemergence pigweed; assay type: in vivo, Amaranthus retroflexus
Summary of the method: as §1

[10] = tested on: rape; assay: Test B pre/postemergence rape; assay type: in vivo, Brassica napus
Summary of the method: as §1

[11] = tested on: soybean; assay: Test B pre/postemergence soybean; assay type: in vivo, Glycine max
Summary of the method: as §1

[12] = tested on: sugar beet; assay: Test B pre/postemergence sugar beet; assay type: in vivo, Beta vulgaris
Summary of the method: as §1

[13] = tested on: velvetleaf; assay: Test B pre/postemergence velvetleaf; assay type: in vivo, Abutilon theophrasti
Summary of the method: as §1

[14] = tested on: wheat; assay: Test B pre/postemergence wheat; assay type: in vivo, Triticum aestivum
Summary of the method: as §1

[15] = tested on: wild oat; assay: Test B pre/postemergence wild oat; assay type: in vivo, Avena fatua
Summary of the method: as §1

[16] = tested on: purple nutsedge; assay: Test B pre/postemergence purple nutsedge; assay type: in vivo, Cyperus rotundus
Summary of the method: as §1

[17] = Preemergence, Rate 62 g/ha, scale of 0 to 10 where 0 is no effect and 10 is complete control
[18] = Preemergence, Rate 125 g/ha, scale of 0 to 10 where 0 is no effect and 10 is complete control
[19] = Preemergence, Rate 250 g/ha, scale 0 to 10 (0 no effect, 10 complete control)
[20] = Preemergence, Rate 500 g/ha, scale of 0 to 10 where 0 is no effect and 10 is complete control
[21] = Rate 500 g/ha, Postemergence, scale 0 to 10, 0 is no effect, 10 is complete control
[22] = Postemergence, Rate 62 g/ha, scale 0 to 10, 0 is no effect, 10 is complete control
[23] = Postemergence, Rate 125 g/ha, scale of 0 to 10 where 0 is no effect and 10 is complete control
[24] = Postemergence, Rate 250 g/ha, scale of 0 to 10, 0 is no effect, 10 is complete control

What does the source list for `CC(C)N(C(=O)n1oc(=O)n(CCF)c1=O)c1ccc(F)cc1F` [Compound 670]?
Bedstraw plant response rating [1, 17]: 8; Plant response rating, Bedstraw [1, 18]: 8; Plant response rating, Bedstraw [1, 19]: 9; Plant response rating, Bedstraw [1, 20]: 9; Bedstraw plant response rating [1, 21]: 8; Plant response rating, Blackgrass [2, 22]: 2; Blackgrass plant response rating [2, 23]: 4; Blackgrass plant response rating [2, 24]: 5; Blackgrass plant response rating [2, 17]: 8; Plant response rating, Blackgrass [2, 18]: 9; Plant response rating, Blackgrass [2, 19]: 10; Plant response rating, Blackgrass [2, 20]: 10; Blackgrass plant response rating [2, 21]: 5; Plant response rating, B. signalgrass [3, 22]: 3; Plant response rating, B. signalgrass [3, 23]: 7; B. signalgrass plant response rating [3, 24]: 7; B. signalgrass plant response rating [3, 17]: 8; Plant response rating, B. signalgrass [3, 18]: 9; Plant response rating, B. signalgrass [3, 19]: 10; Plant response rating, B. signalgrass [3, 20]: 10; B. signalgrass plant response rating [3, 21]: 8; Plant response rating, Cocklebur [4, 22]: 2; Cocklebur plant response rating [4, 23]: 2; Cocklebur plant response rating [4, 24]: 2; Cocklebur plant response rating [4, 17]: 0; Plant response rating, Cocklebur [4, 18]: 0; Plant response rating, Cocklebur [4, 20]: 2; Cocklebur plant response rating [4, 21]: 3; Plant response rating, Corn [5, 22]: 3; Corn plant response rating [5, 23]: 4; Corn plant response rating [5, 24]: 5; Corn plant response rating [5, 17]: 2; Plant response rating, Corn [5, 18]: 4; Plant response rating, Corn [5, 19]: 8; Plant response rating, Corn [5, 20]: 9; Corn plant response rating [5, 21]: 6; Plant response rating, Crabgrass [6, 22]: 9; Crabgrass plant response rating [6, 23]: 8; Crabgrass plant response rating [6, 24]: 8; Crabgrass plant response rating [6, 17]: 10; Plant response rating, Crabgrass [6, 18]: 10; Plant response rating, Crabgrass [6, 19]: 10; Plant response rating, Crabgrass [6, 20]: 10; Crabgrass plant response rating [6, 21]: 8; Plant response rating, Giant foxtail [7, 22]: 9; Giant foxtail plant response rating [7, 23]: 9; Giant foxtail plant response rating [7, 24]: 9; Giant foxtail plant response rating [7, 17]: 10; Plant response rating, Giant foxtail [7, 18]: 10; Plant response rating, Giant foxtail [7, 19]: 10; Plant response rating, Giant foxtail [7, 20]: 10; Giant foxtail plant response rating [7, 21]: 9; Plant response rating, Morningglory [8, 22]: 3; Morningglory plant response rating [8, 23]: 3; Morningglory plant response rating [8, 24]: 6; Morningglory plant response rating [8, 17]: 2; Plant response rating, Morningglory [8, 18]: 7; Plant response rating, Morningglory [8, 19]: 8; Plant response rating, Morningglory [8, 20]: 8; Morningglory plant response rating [8, 21]: 4; Plant response rating, Redroot pigweed [9, 22]: 7; Redroot pigweed plant response rating [9, 23]: 7; Redroot pigweed plant response rating [9, 17]: 9; Plant response rating, Redroot pigweed [9, 18]: 10; Plant response rating, Redroot pigweed [9, 19]: 10; Plant response rating, Redroot pigweed [9, 20]: 10; Redroot pigweed plant response rating [9, 21]: 9; Plant response rating, Rape [10, 22]: 0; Rape plant response rating [10, 23]: 2; Rape plant response rating [10, 17]: 8; Plant response rating, Rape [10, 18]: 9; Plant response rating, Rape [10, 19]: 10; Plant response rating, Rape [10, 20]: 10; Rape plant response rating [10, 21]: 4; Plant response rating, Soybean [11, 22]: 3; Soybean plant response rating [11, 23]: 2; Soybean plant response rating [11, 17]: 0; Plant response rating, Soybean [11, 18]: 3; Plant response rating, Soybean [11, 19]: 8; Plant response rating, Soybean [11, 20]: 9; Soybean plant response rating [11, 21]: 5; Plant response rating, Sugarbeets [12, 22]: 0; Sugarbeets plant response rating [12, 23]: 2; Sugarbeets plant response rating [12, 17]: 8; Plant response rating, Sugarbeets [12, 18]: 9; Plant response rating, Sugarbeets [12, 19]: 9; Plant response rating, Sugarbeets [12, 20]: 9; Sugarbeets plant response rating [12, 21]: 2; Plant response rating, Velvetleaf [13, 22]: 5; Velvetleaf plant response rating [13, 23]: 5; Velvetleaf plant response rating [13, 17]: 6; Plant response rating, Velvetleaf [13, 18]: 8; Plant response rating, Velvetleaf [13, 19]: 8; Plant response rating, Velvetleaf [13, 20]: 8; Velvetleaf plant response rating [13, 21]: 4; Plant response rating, Wheat [14, 22]: 0; Wheat plant response rating [14, 23]: 0; Wheat plant response rating [14, 17]: 7; Plant response rating, Wheat [14, 18]: 9; Plant response rating, Wheat [14, 19]: 9; Plant response rating, Wheat [14, 20]: 9; Wheat plant response rating [14, 21]: 4; Plant response rating, Wild oats [15, 22]: 0; Wild oats plant response rating [15, 23]: 0; Wild oats plant response rating [15, 17]: 7; Plant response rating, Wild oats [15, 18]: 9; Plant response rating, Wild oats [15, 19]: 9; Plant response rating, Wild oats [15, 20]: 9; Wild oats plant response rating [15, 21]: 3; Plant response rating, Nutsedge [16, 22]: 0; Nutsedge plant response rating [16, 23]: 4; Plant response rating, Nutsedge [16, 18]: 5; Plant response rating, Nutsedge [16, 19]: 8; Plant response rating, Nutsedge [16, 20]: 10; Nutsedge plant response rating [16, 21]: 5
